A short description of series [1]: Determination of hygroscopicity or deliquescence (exposure study). Conditions: for change in mass, final vs initial net weight: + = increase, 1% or greater increase = hygroscopic, less than 1% change = stable and non-hygroscopic; for Net weight, final: open glass container, ambient atmosphere, end of 6-day storage period.
Protocol: The hygroscopicity or deliquescence of L-carnitine compounds was determined in the following manner. An accurately weighed portion of each compound was weighed into a separate, tared glass container that was open to the ambient atmosphere. Periodically during the storage period that followed, each sample was re-weighed and the mass recorded. At the end of the 6-day storage period, the change in mass at each interval was determined (Table 2).
Details of series [2]: species or system human. Conditions: in vivo, iv. The text has this:
Physiological effects of administration by injection of a solution of L-carnitine calcium acetate. The inventors expect that a study paralleling that of Golper et al. (Example 9, vide infra) may be completed in which L-carnitine calcium acetate of the present invention is substituted for the L-carnitine of Golper et al. L-Carnitine calcium acetate of the present invention has a known molecular weight and composition and is water soluble. Therefore, intravenously administrable solutions of L-carnitine calcium acetate can be prepared that will provide a known concentration of L-carnitine. The intravenously administrable solutions of L-carnitine calcium acetate of the present invention may be provided to test subjects as sterile aqueous solutions of L-carnitine calcium acetate which will be administered by injecting over one to three minutes in the venous line during the blood return immediately after the end of every dialysis treatment. In the alternative, the inventors expect that the unique physico-chemical properties of L-carnitine calcium acetate of the present invention will permit incorporation of L-carnitine calcium acetate into dialysate as a source of L-carnitine and as a partial or total replacement for the calcium that is conventionally included in dialysate.

Series [3] can be described thus: Observation of hygroscopicity and storage stability of the isolated solid on exposure to the atmosphere. The series is classed as physicochemical. The method, then: The term “non-hygroscopic” means the ability endowed by certain L-carnitine salts, when they occur as powders or granules, to withstand exposure to the water vapor of an ambient atmosphere for 24 hours or longer without giving rise to adverse phenomena of aggregating, agglomerating, absorbing water, or deliquescing which results in loss of their flowability.
Attempted preparation of L-carnitine calcium succinate. A mixture of calcium succinate ([…], 0.003 mol) and L-carnitine (0.5 g, 0.003 mol) was dissolved in water (5 mL) and stirred at room temperature for 30 minutes. Dissolution was incomplete, and the reaction temperature was raised to 80° C. Stirring was continued at the higher temperature for 3 hr. The resulting solution was cooled to room temperature and filtered, and the filtrate was concentrated at reduced pressure to a white solid.
Attempted preparation of L-carnitine calcium salt. A mixture of calcium hydroxide (0.22 g, 0.003 mol) was suspended in acetone (100 mL) and a concentrated solution of L-carnitine (0.5 g, 0.003 mol) in the minimum volume of water needed to effect dissolution was added. The resulting reaction mixture was heated at reflux for 4 hours. Dissolution remained incomplete. The reaction mixture was filtered hot. The filtrate was concentrated at reduced pressure to a white solid.

For series [4] the following is noted: 20 mg/kg intravenously (VitaCarn 20% solution) after every dialysis treatment, six months; cited from earlier work.
The conditions of series [5]: background statement; cited from earlier work.
Setting [6] is: 6-day storage open to ambient atmosphere.

Entries after “also recorded” stand apart in the source; their conditions may differ. Where two headings read alike, the source gives them in different places.

In the case of `CC(=O)[O-].CC(=O)[O-].C[N+](C)(C)C[C@H](O)CC(=O)[O-].[Ca+2]` [L-carnitine calcium acetate], the “change in mass, final vs initial net weight” value (shortened to “change in mass, final”) in series [1] (setting [6]) is on record as “(+0.3%)”. The “Conclusion & Observations” value in series [1] (6-day storage open to ambient atmosphere, calcium acetate) is “did not absorb water and was stable during storage”; in series [1] (6-day storage open to ambient atmosphere, listed as L-Carnitine calcium acetate, calcium acetate), “absorb water and was stable during storage”. The “Net weight, final” value in series [1] was 149.5 mg. Besides, the “change in plasma and red blood cell carnitine concentrations and total/free carnitine ratio” value in series [2] is on record as “measurable increases”.
For L-carnitine calcium butyrate, the “hygroscopicity and stability of the solid” value (shortened to “hygroscopicity and stability”) is “not hygroscopic; also recorded: lack of hygroscopicity or deliquescence” in series [3] (exposure to the atmosphere); “not hygroscopic or deliquescent and is stable during storage” in series [3] (provided that the relative humidity is less than about 20%).
Take `CCC(=O)[O-].CCC(=O)[O-].C[N+](C)(C)C[C@H](O)CC(=O)[O-].[Ca+2]` [L-carnitine calcium propionate]: the “change in mass, final” value in series [1] (setting [6]) was “(+5%)”. The figures for the “Conclusion & Observations” value in series [1] (higher relative humidities (above about 20%)) and in series [1] (relative humidity less than about 20%) were “absorbed water. Compound became” and “mobility of the material did not change”, respectively. In addition, the “Net weight, final” value in series [1] is reported as 170.2 mg.
On to `C[N+](C)(C)C[C@H](O)CC(=O)[O-].O=C([O-])/C=C/C(=O)[O-].[Ca+2]` [L-carnitine calcium fumarate], for which the “hygroscopicity and stability” value in series [3] was “hygroscopic”.
Turning to `C[N+](C)(C)C[C@H](O)CC(=O)[O-].[Ca]` [L-carnitine calcium salt], in series [3], the “hygroscopicity and stability” value is “hygroscopic”.
Regarding `C[N+](C)(C)C[C@H](O)CC(=O)[O-].O=C([O-])CCC(=O)[O-].[Ca+2]` [L-carnitine calcium succinate], in series [3], the “hygroscopicity and stability” value was “hygroscopic”.
Turning to `C[N+](C)(C)C[C@H](O)CC(=O)[O-]` [L-carnitine, L-(−)-Carnitine], the “increase of plasma and red blood cell total carnitine concentrations” value in series [4] is listed as “eightfold”. Further, the “hygroscopicity (known)” value in series [5] is reported as “very hygroscopic”. Moreover, in series [1] (setting [6]), the “Conclusion & Observations” value is “absorbed water. Material is hygroscopic” and the “change in mass, final” value was “(+>8%)”. The “Net weight, final” value in series [1] is recorded as above 226.8 mg.

The values above are taken from patent US7572832B2, “Non-hygroscopic L-carnitine salts” (Biolink Life Sciences, Inc., priority 2007, dated 2009).
